Measured values: ChEMBL document CHEMBL4304757, “Synthetic heterocyclic candidates as promising α-glucosidase inhibitors: An overview” (Eur J Med Chem, 2019)

target: not listed separately; assay: Inhibition of yeast alpha-glucosidase using p-nitrophenyl-alpha-d-glucopyranoside as substrate preincubated for 15 mins followed by substrate addition measured after 30 mins; design: species or system Saccharomyces cerevisiae; conditions: not given

Compound | IC50
Cc1ncc([N+](=O)[O-])n1Cn1cc(Cn2c3ccccc3c3ccccc32)nn1 | 6.8 µM
c1cncc(Cn2cc(Cn3c4ccccc4c4ccccc43)nn2)c1 | 0.8 µM
O=C(CC(c1ccc(Br)cc1)C(C(=O)Nc1ccccn1)C(=O)Nc1ccccn1)c1ccccc1 (stereo not given) | 12 µM
c1ccc2c(c1)c1ccccc1n2Cc1cn(Cc2ccc(Cn3cc(Cn4c5ccccc5c5ccccc54)nn3)cc2)nn1 | 3.6 µM
c1ccc2c(c1)c1ccccc1n2Cc1cn(Cc2ccc(-c3ccc(Cn4cc(Cn5c6ccccc6c6ccccc65)nn4)cc3)cc2)nn1 | 73 µM
Cc1ccc(C(CC(=O)c2ccccc2)C(C(=O)Nc2ccccn2)C(=O)Nc2ccccn2)cc1 (stereo not given) | 28 µM
C[C@H]1O[C@H](O[C@H]2[C@H](O)[C@@H](O)[C@@H](O[C@H]3[C@H](O)[C@@H](O)C(O)O[C@@H]3CO)O[C@@H]2CO)[C@H](O)[C@@H](O)[C@@H]1N[C@H]1C=C(CO)[C@@H](O)[C@H](O)[C@H]1O (stereo not given in full) [ACARBOSE] | 937 µM

Other lines, results leading:

IC50 | Compound
6.5 µM | O=C(c1ccc(O)cc1)C1Cc2c(ccc3ccccc23)O1 (stereo not given)
60 to 180 µM | Cc1[nH]nc2c1C(c1ccccc1OCc1ccccc1)C(C#N)=C(N)O2 (stereo not given)
0.61 to 1 µM | O=C(Cn1cc(Cn2c3ccccc3c3ccccc32)nn1)c1ccc(O)c(Br)c1
60 to 180 µM | COc1cc(C2C(C#N)=C(N)Oc3n[nH]c(C)c32)ccc1OCc1ccccc1 (stereo not given)
60 to 180 µM | Cc1[nH]nc2c1C(c1ccc(O)c(OCc3ccccc3)c1)C(C#N)=C(N)O2 (stereo not given)
54 µM | Cc1n[nH]c2c1C(c1ccc([N+](=O)[O-])cc1)C(C#N)=C(N)O2 (stereo not given)
60 to 180 µM | Cc1n[nH]c2c1C(c1ccc(Cl)cc1Cl)C(C#N)=C(N)O2 (stereo not given)

target: not listed separately; assay: Inhibition of yeast alpha-glucosidase using p-nitrophenyl-alpha-d-glucopyranoside as substrate preincubated for 15 mins followed by substrate addition measured after 20 mins; design: species or system Saccharomyces cerevisiae; conditions: not given

IC50 | Compound
10 µM | NNC(=O)Cn1c(Cc2ccc(Cl)cc2Cl)nc2ccc([N+](=O)[O-])cc21
3.4 to 20 µM | c1ccc(-c2nc3ccc(N4CCOCC4)cc3[nH]2)nc1
3.4 to 20 µM | Clc1ccc(-c2nc3ccc(N4CCOCC4)cc3[nH]2)cc1
3.4 to 20 µM | COc1cc(-c2nc3ccc(N4CCOCC4)cc3[nH]2)ccc1O
2.2 to 21 µM | COc1cc(-c2nc3ccc(N4CCN(C)CC4)cc3[nH]2)ccc1O
3.4 to 20 µM | Fc1ccc(-c2nc3ccc(N4CCOCC4)cc3[nH]2)cc1Br
3.4 to 20 µM | Oc1ccc(-c2nc3ccc(N4CCOCC4)cc3[nH]2)cc1O
2.2 to 21 µM | CN1CCN(c2ccc3nc(-c4ccc(N(C)C)cc4)[nH]c3c2)CC1
3.4 to 20 µM | CN(C)c1ccc(-c2nc3ccc(N4CCOCC4)cc3[nH]2)cc1

Compound | IC50
CN1CCN(c2ccc3[nH]c(-c4ccc(O)cc4)nc3c2)CC1 | 2.2 µM
CN1CCN(c2ccc3nc(-c4ccc(F)c(Br)c4)[nH]c3c2)CC1 | 2.2 to 21 µM
CN1CCN(c2ccc3nc(-c4ccc(O)c(O)c4)[nH]c3c2)CC1 | 2.2 to 21 µM
CN1CCN(c2ccc3nc(-c4ccc(Cl)cc4)[nH]c3c2)CC1 | 2.2 to 21 µM
CN1CCN(c2ccc3nc(-c4ccccn4)[nH]c3c2)CC1 | 2.2 to 21 µM

target: not listed separately; assay: Inhibition of yeast alpha-glucosidase using p-nitrophenyl-alpha-d-glucopyranoside as substrate preincubated for 5 mins followed by substrate addition measured after 5 mins; design: species or system Saccharomyces cerevisiae; conditions: not given

Compound | IC50
O=[N+]([O-])c1ccc2cc(-c3nnc(-c4ccc(Cl)cc4)o3)oc2c1 | 12 to 162 µM
O=[N+]([O-])c1ccc2cc(-c3nnc(-c4cccc(Cl)c4)o3)oc2c1 | 12 to 162 µM
O=[N+]([O-])c1ccc2cc(-c3nnc(-c4cc(O)cc(O)c4)o3)oc2c1 | 12 to 162 µM
O=[N+]([O-])c1ccc2cc(-c3nnc(-c4ccc(F)cc4)o3)oc2c1 | 12 to 162 µM
O=[N+]([O-])c1ccc2cc(-c3nnc(-c4cccc(F)c4)o3)oc2c1 | 12 to 162 µM

Now from value to compound:

IC50 | Compound
12 to 162 µM | COc1ccc(O)c(-c2nnc(-c3cc4ccc([N+](=O)[O-])cc4o3)o2)c1
12 to 162 µM | O=[N+]([O-])c1ccc2cc(-c3nnc(-c4cc(O)ccc4O)o3)oc2c1
12 to 162 µM | O=[N+]([O-])c1ccc2cc(-c3nnc(-c4ccccc4Cl)o3)oc2c1
12 to 162 µM | COc1ccc(-c2nnc(-c3cc4ccc([N+](=O)[O-])cc4o3)o2)c(O)c1
12 to 162 µM | O=[N+]([O-])c1ccc2cc(-c3nnc(-c4ccccc4F)o3)oc2c1
12 to 162 µM | O=[N+]([O-])c1ccc2cc(-c3nnc(-c4ccc(O)cc4O)o3)oc2c1
12 to 162 µM | O=[N+]([O-])c1ccc2cc(-c3nnc(-c4cccc(O)c4)o3)oc2c1
12 to 162 µM | O=[N+]([O-])c1ccc2cc(-c3nnc(-c4ccc(O)cc4)o3)oc2c1
12 to 162 µM | O=[N+]([O-])c1ccc2cc(-c3nnc(-c4ccc(O)c(O)c4)o3)oc2c1
12 to 162 µM | COc1ccc(-c2nnc(-c3cc4ccc([N+](=O)[O-])cc4o3)o2)cc1O

target: T1, Alpha glucosidase (Homo sapiens, UniProt O43451+P10253+P14410+Q2M2H8); assay: Inhibition of alpha-glucosidase (unknown origin) using p-nitrophenyl-alpha-d-glucopyranoside as substrate preincubated for 5 mins followed by substrate addition measured after 30 mins; assay type: protein assay; conditions: not given

IC50 | Compound
0.09 to 1.6 µM | COc1cccc(N2C(=O)/C(=C/c3ccc(F)cc3)S/C2=N\NC(=O)c2cc3ccccc3oc2=O)c1
0.09 to 1.6 µM | Cc1ccc(N2C(=O)/C(=C/c3ccc(F)cc3)S/C2=N\NC(=O)c2cc3ccccc3oc2=O)cc1C
0.09 to 1.6 µM | Cc1ccc(N2C(=O)/C(=C/c3ccc(F)cc3)S/C2=N\NC(=O)c2cc3ccccc3oc2=O)c(C)c1
> 100 µM | Cc1ccc(C)c(N2C(=O)/C(=C/c3ccc(F)cc3)S/C2=N\NC(=O)c2cc3ccccc3oc2=O)c1
0.09 to 1.6 µM | Cc1cc(C)cc(N2C(=O)/C(=C/c3ccc(F)cc3)S/C2=N\NC(=O)c2cc3ccccc3oc2=O)c1
0.09 to 1.6 µM | Cc1cccc(C)c1N1C(=O)/C(=C/c2ccc(F)cc2)S/C1=N\NC(=O)c1cc2ccccc2oc1=O
0.09 to 1.6 µM | O=C(N/N=C1\S/C(=C\c2ccc(F)cc2)C(=O)N1c1ccccc1Cl)c1cc2ccccc2oc1=O
0.09 to 1.6 µM | O=C(N/N=C1\S/C(=C\c2ccc(F)cc2)C(=O)N1c1ccc(Cl)cc1)c1cc2ccccc2oc1=O
0.09 to 1.6 µM | COc1ccc(N2C(=O)/C(=C/c3ccc(F)cc3)S/C2=N\NC(=O)c2cc3ccccc3oc2=O)cc1
0.09 to 1.6 µM | Cc1cccc(N2C(=O)/C(=C/c3ccc(F)cc3)S/C2=N\NC(=O)c2cc3ccccc3oc2=O)c1
> 100 µM | O=C(N/N=C1\S/C(=C\c2ccc(F)cc2)C(=O)N1c1cccc(Cl)c1)c1cc2ccccc2oc1=O
> 100 µM | Cc1cccc(N2C(=O)/C(=C/c3ccc(F)cc3)S/C2=N\NC(=O)c2cc3ccccc3oc2=O)c1C
0.09 to 1.6 µM | Cc1ccc(N2C(=O)/C(=C/c3ccc(F)cc3)S/C2=N\NC(=O)c2cc3ccccc3oc2=O)cc1
0.09 µM | COc1ccccc1N1C(=O)/C(=C/c2ccc(F)cc2)S/C1=N\NC(=O)c1cc2ccccc2oc1=O
0.09 to 1.6 µM | Cc1ccccc1N1C(=O)/C(=C/c2ccc(F)cc2)S/C1=N\NC(=O)c1cc2ccccc2oc1=O

target: T1, Alpha glucosidase; assay: Inhibition of alpha-glucosidase (unknown origin) using p-nitro phenyl glucopyranoside as substrate preincubated for 10 mins followed by substrate addition measured after 30 mins; assay type: protein assay; conditions: not given

Compound | IC50
O=C(N/N=C/c1ccc(C(F)(F)F)cc1)c1nc(-c2cc3ccccc3oc2=O)cs1 | 6.2 to 81 µM
O=C(N/N=C/c1ccccc1F)c1nc(-c2cc3ccccc3oc2=O)cs1 | 6.2 to 81 µM
O=C(N/N=C/c1ccc(Cl)cc1)c1nc(-c2cc3ccccc3oc2=O)cs1 | 6.2 to 81 µM
O=C(N/N=C/c1cccc(F)c1)c1nc(-c2cc3ccccc3oc2=O)cs1 | 6.2 to 81 µM
CC(C)(C)c1cc(/C=N/NC(=O)c2nc(-c3cc4ccccc4oc3=O)cs2)c(O)c(C(C)(C)C)c1 | 6.2 to 81 µM
O=C(N/N=C/c1cccc(Cl)c1)c1nc(-c2cc3ccccc3oc2=O)cs1 | 6.2 to 81 µM

Continued, values first:

IC50 | Compound
6.2 to 81 µM | COc1ccc(/C=N/NC(=O)c2nc(-c3cc4ccccc4oc3=O)cs2)c(O)c1
6.2 to 81 µM | O=C(N/N=C/c1ccc(O)c(O)c1)c1nc(-c2cc3ccccc3oc2=O)cs1
6.2 to 81 µM | O=C(N/N=C/c1cc(Cl)ccc1O)c1nc(-c2cc3ccccc3oc2=O)cs1
6.2 to 81 µM | O=C(N/N=C/c1ccc(O)c(F)c1)c1nc(-c2cc3ccccc3oc2=O)cs1
6.2 to 81 µM | COc1ccc(/C=N/NC(=O)c2nc(-c3cc4ccccc4oc3=O)cs2)cc1
6.2 to 81 µM | O=C(N/N=C/c1cc(O)ccc1O)c1nc(-c2cc3ccccc3oc2=O)cs1
6.2 to 81 µM | O=C(N/N=C/c1ccc(O)cc1)c1nc(-c2cc3ccccc3oc2=O)cs1
6.2 to 81 µM | O=C(N/N=C/c1ccccc1O)c1nc(-c2cc3ccccc3oc2=O)cs1
6.2 to 81 µM | COc1ccccc1/C=N/NC(=O)c1nc(-c2cc3ccccc3oc2=O)cs1
6.2 to 81 µM | O=C(N/N=C/c1cccc(Br)c1)c1nc(-c2cc3ccccc3oc2=O)cs1

tested on: MDA-MB-231; assay: Cytotoxicity against human MDA-MB-231 cells assessed as reduction in cell viability at 100 uM relative to control; assay type: functional, cell-based; conditions: not given

Compound | Activity
COc1cccc(N2C(=O)/C(=C/c3ccc(F)cc3)S/C2=N\NC(=O)c2cc3ccccc3oc2=O)c1 | >=76%
CC[C@]1(O)C[C@H]2CN(CCc3c([nH]c4ccccc34)[C@@](C(=O)OC)(c3cc4c(cc3OC)N(C=O)[C@H]3[C@@](O)(C(=O)OC)[C@H](OC(C)=O)[C@]5(CC)C=CCN6CC[C@]43[C@@H]65)C2)C1 [VINCRISTINE] | 74.5%
Cc1ccc(N2C(=O)/C(=C/c3ccc(F)cc3)S/C2=N\NC(=O)c2cc3ccccc3oc2=O)c(C)c1 | >=76%
Cc1ccc(C)c(N2C(=O)/C(=C/c3ccc(F)cc3)S/C2=N\NC(=O)c2cc3ccccc3oc2=O)c1 | >=76%
Cc1cccc(C)c1N1C(=O)/C(=C/c2ccc(F)cc2)S/C1=N\NC(=O)c1cc2ccccc2oc1=O | >=76%
O=C(N/N=C1\S/C(=C\c2ccc(F)cc2)C(=O)N1c1ccc(Cl)cc1)c1cc2ccccc2oc1=O | >=76%
COc1ccc(N2C(=O)/C(=C/c3ccc(F)cc3)S/C2=N\NC(=O)c2cc3ccccc3oc2=O)cc1 | >=76%
Cc1cccc(N2C(=O)/C(=C/c3ccc(F)cc3)S/C2=N\NC(=O)c2cc3ccccc3oc2=O)c1 | >=76%
O=C(N/N=C1\S/C(=C\c2ccc(F)cc2)C(=O)N1c1cccc(Cl)c1)c1cc2ccccc2oc1=O | >=76%
Cc1cccc(N2C(=O)/C(=C/c3ccc(F)cc3)S/C2=N\NC(=O)c2cc3ccccc3oc2=O)c1C | >=76%
Cc1ccc(N2C(=O)/C(=C/c3ccc(F)cc3)S/C2=N\NC(=O)c2cc3ccccc3oc2=O)cc1 | >=76%
COc1ccccc1N1C(=O)/C(=C/c2ccc(F)cc2)S/C1=N\NC(=O)c1cc2ccccc2oc1=O | 72.8%
Cc1ccccc1N1C(=O)/C(=C/c2ccc(F)cc2)S/C1=N\NC(=O)c1cc2ccccc2oc1=O | >=76%

same assay, conditions: Homo sapiens, MDA-MB-231

Compound | IC50
Cc1ccc(N2C(=O)/C(=C/c3ccc(F)cc3)S/C2=N\NC(=O)c2cc3ccccc3oc2=O)cc1C | 0.09 to 1.6 µM
Cc1cc(C)cc(N2C(=O)/C(=C/c3ccc(F)cc3)S/C2=N\NC(=O)c2cc3ccccc3oc2=O)c1 | 0.09 to 1.6 µM
O=C(N/N=C1\S/C(=C\c2ccc(F)cc2)C(=O)N1c1ccccc1Cl)c1cc2ccccc2oc1=O | 0.09 to 1.6 µM

target: T1, Alpha glucosidase; assay: Inhibition of alpha-glucosidase (unknown origin) using p-nitrophenyl-alpha-d-glucopyranoside as substrate preincubated for 10 mins followed by substrate addition measured after 20 mins; assay type: protein assay; conditions: not given

Compound | IC50
Nc1c(C(c2cccc(Br)c2)c2c(N)c3ccccc3oc2=O)c(=O)oc2ccccc12 | 20 to 180 µM
Nc1c(C(c2ccccc2F)c2c(N)c3ccccc3oc2=O)c(=O)oc2ccccc12 | 20 to 180 µM
Nc1c(C(c2ccccc2Cl)c2c(N)c3ccccc3oc2=O)c(=O)oc2ccccc12 | 20 to 180 µM
Nc1c(C(c2cccc(Cl)c2)c2c(N)c3ccccc3oc2=O)c(=O)oc2ccccc12 | 20 to 180 µM
Nc1c(C(c2cccc(F)c2)c2c(N)c3ccccc3oc2=O)c(=O)oc2ccccc12 | 20 to 180 µM
Nc1c(C(c2ccccc2)c2c(N)c3ccccc3oc2=O)c(=O)oc2ccccc12 | 20 to 180 µM
Nc1c(C(c2ccc([N+](=O)[O-])cc2)c2c(N)c3ccccc3oc2=O)c(=O)oc2ccccc12 | 20 to 180 µM

Now from value to compound:

IC50 | Compound
20 to 180 µM | COc1cccc(C(c2c(N)c3ccccc3oc2=O)c2c(N)c3ccccc3oc2=O)c1
20 to 180 µM | Cc1cccc(C(c2c(N)c3ccccc3oc2=O)c2c(N)c3ccccc3oc2=O)c1
20 to 180 µM | COc1cc(C(c2c(N)c3ccccc3oc2=O)c2c(N)c3ccccc3oc2=O)cc(Br)c1O
